Reference: paper PMC3228903 (The FEBS journal, 2011)
Positions count from the first letter of the chain named. Like-named read-outs stand apart in the source and are kept apart here.

Experiments:
WT MAO A = conditions: cited from earlier work; for Ki: WT MAO A
MAO B Ile199Ala = target: T1, MAO B Ile199Ala (Homo sapiens, UniProt P27338, I199A); assay type: biochemical
T1 sequence (P27338 1-520 I199A): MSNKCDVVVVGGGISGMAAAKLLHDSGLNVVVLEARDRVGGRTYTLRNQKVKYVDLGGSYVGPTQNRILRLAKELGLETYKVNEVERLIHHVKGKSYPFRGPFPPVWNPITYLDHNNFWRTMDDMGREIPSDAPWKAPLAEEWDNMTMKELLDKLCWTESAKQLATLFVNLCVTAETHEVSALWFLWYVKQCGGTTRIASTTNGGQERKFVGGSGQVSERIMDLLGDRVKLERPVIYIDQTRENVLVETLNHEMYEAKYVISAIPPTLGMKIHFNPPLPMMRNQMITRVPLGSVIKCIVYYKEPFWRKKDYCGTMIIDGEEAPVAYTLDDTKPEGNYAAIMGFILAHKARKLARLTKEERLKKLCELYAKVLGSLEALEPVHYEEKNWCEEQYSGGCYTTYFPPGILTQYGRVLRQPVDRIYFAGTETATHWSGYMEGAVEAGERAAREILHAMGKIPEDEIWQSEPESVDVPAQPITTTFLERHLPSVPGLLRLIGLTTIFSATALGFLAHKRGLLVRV

[1] = target: T2, MAO B Ile199Ala-Tyr326Ala (Homo sapiens, UniProt P27338, I199A/Y326A); assay type: biochemical
T2 sequence (P27338 1-520 I199A/Y326A): T1 sequence (P27338 1-520 I199A) with Y326A

WT MAO B [2] = target: T3, WT MAO B (Homo sapiens, UniProt P27338); assay: Inhibition of WT MAO B, Ki from initial rates of substrate oxidation; assay type: biochemical
T3 sequence (P27338 1-520): T1 sequence (P27338 1-520 I199A) with A199I

WT MAO B [3] = target: T3, WT MAO B; conditions: pH 7.5; cited from earlier work
Ile199Ala MAO B = target: T4, Ile199Ala MAO B (Homo sapiens, UniProt P27338, I199A); assay: Steady-state substrate oxidation and pH dependence, Ile199Ala MAO B; assay type: biochemical
T4 sequence (P27338 1-520 I199A): T1 sequence (P27338 1-520 I199A)

[4] = target: T5, Ile199Ala/Tyr326Ala MAO B (Homo sapiens, UniProt P27338, I199A/Y326A); assay: Steady-state substrate oxidation and pH dependence, Ile199Ala/Tyr326Ala MAO B; assay type: biochemical
T5 sequence (P27338 1-520 I199A/Y326A): T1 sequence (P27338 1-520 I199A) with Y326A

WT MAO B [5] = target: T3, WT MAO B; assay: Steady-state substrate oxidation and pH dependence, WT MAO B; assay type: biochemical; conditions: pH 7.5
[6] = Ki, Ile199Ala single mutant, pH 7.5
[7] = Ile199Ala-Tyr326Ala double mutant
[8] = Ile199Ala-Tyr326Ala double mutant, pH 9.3

## O=C1Nc2ccccc2C1=O [Isatin]
WT MAO A
  Ki: 15 µM

## CC(C)=CCC/C(C)=C/CC/C(C)=C/CO [Farnesol, trans,trans-farnesol]
MAO B Ile199Ala; [6]
  Ki: 2.7 ± 0.4 µM
[1]
  Ki: 18 ± 3 µM
[1]; [7]
  binding / inhibition in words: weaker binding
WT MAO A; previous work
  binding to human MAO A in words: do not bind

## NS(=O)(=O)Cc1noc2ccccc12 [zonisamide]
[1]; [7]
  binding / inhibition in words: no detectable inhibition

## CNC1CCc2ccccc21 (stereo not shown) [methylaminoindane]
[1]
  binding / inhibition in words: Weak binding

## NC1CCc2ccccc21 (stereo not shown) [aminoindane]
[1]
  binding / inhibition in words: Weak binding

## Cc1ccc2c(c1)c1c3n2CCNC3CCC1 (stereo not shown) [Pirlindole, pirlindole]
WT MAO B [2]; WT MAO B, pH 7.5
  Ki: No inhibition
WT MAO B [2]; WT MAO B, pH 7.5, listed as pirlindole
  Ki: neither MAO B nor the Ile199Ala single mutant are inhibited
MAO B Ile199Ala; Ile199Ala single mutant, pH 7.5
  Ki: No inhibition
MAO B Ile199Ala; Ile199Ala single mutant, pH 7.5, listed as pirlindole
  Ki: neither MAO B nor the Ile199Ala single mutant are inhibited
[1]
  Ki: 4.1 ± 0.2 µM
WT MAO A
  Ki: 0.92 ± 0.04 µM

## N[C@@H]1C[C@H]1c1ccccc1 (racemic) [Tranylcypromine]
WT MAO A
  Ki: 19 µM

## C(=CCc1ccccc1)Cc1ccccc1 [DPB, 1,4-Diphenyl-2-butene]
MAO B Ile199Ala; [6]
  Ki: 8.1 ± 1.6 µM
[1]; [7]
  binding / inhibition in words: no detectable binding
[1]; [8]
  Ki: no inhibition
WT MAO B [3]
  Ki: 34.5 ± 1.4 µM

## C[C@H](NCc1ccc(OCc2cccc(F)c2)cc1)C(N)=O [Safinamide]
[1]; double mutant relative to WT MAO B
  weaker affinity than WT MAO B: ~ 10 fold

## NCCc1ccccc1 [Phenylethylamine, Phenethylamine]
Ile199Ala MAO B; single mutant, pH 7.5
  increase in KM relative to WT enzyme: 4 fold
[4]; double mutant, pH 7.5
  KM value higher than WT enzyme: 75 fold

## NCc1ccccc1 [Benzylamine, benzylamine]
Ile199Ala MAO B; single mutant
  V/K extrapolated for fully deprotonated free enzyme, of WT activity: 42%
[4]; I199A-Y326A, pH 7.5
  KM: too high to measure
[4]; I199A-Y326A, pH 7.5, no saturation
  2nd order rate: 2nd order rate =: 0.0106 ±0.0002 μM^−1min^−1
[4]; double mutant
  V/K extrapolated for fully deprotonated free enzyme, of WT activity: ~ 5%

## C(C=Cc1ccccc1)=Cc1ccccc1 [DPBD, 1,4-Diphenyl-1,3-butadiene]
MAO B Ile199Ala
  Ki: 1 ± 0.03 µM
[1]; [7]
  binding / inhibition in words: no detectable binding
[1]; [8]
  Ki: no inhibition
WT MAO B [3]
  Ki: 7 ± 0.2 µM

## NCCCCc1ccccc1 [Phenylbutylamine, phenylbutylamine]
WT MAO B [5]
  Km: 19 ± 3 µM
  kcat: 1.83 ± 0.083 s⁻¹
Ile199Ala MAO B; I199A, pH 7.5
  Km: 8.9 ± 0.7 µM
  kcat: 2.25 ± 0.05 s⁻¹
[4]; I199A-Y326A, pH 7.5
  Km: 55 ± 2 µM
  kcat: 2.37 ± 0.017 s⁻¹

## Cc1nccc2c1[nH]c1ccccc12 [Harmane, harmane]
WT MAO B [2]
  Ki: 140 ± 47 µM
MAO B Ile199Ala
  Ki: 550 ± 50 µM
[1]
  Ki: 165 ± 17 µM
WT MAO A
  Ki: 0.58 ± 0.02 µM

## CN(C)c1ccc2nc3ccc(=[N+](C)C)cc-3sc2c1 [Methylene Blue, methylene blue]
[1]; [7]
  binding / inhibition in words: affinity higher than that observed with WT MAO B

## NCc1ccc(C(F)(F)F)cc1 [p-CF3-benzylamine]
Ile199Ala MAO B; single mutant
  V/K extrapolated for fully deprotonated free enzyme, of WT activity: 33%
[4]; double mutant
  V/K extrapolated for fully deprotonated free enzyme, of WT activity: 24%
